The source of these data is PMC11864979, “First-in-class ultralong-target-residence-time p38α inhibitors as a mitosis-targeted therapy for colorectal cancer” (Nature Cancer, 2025).

Values joined by “and” are separate entries in the source; they are usually repeats but may differ in a detail not shown here. Identical values can stand only once. Like-named read-outs stand apart in the source and are kept apart here.

One data set concerns KAP organoids. Description: cell viability in KAP organoids (CellTiter-Glo). Conditions: for induction of cell death in KAP organoids (in words): viability assay. The format is cell-based, mouse. As for the experimental part: For in vitro treatment studies, organoids were mechanically dissociated and digested using TrypLE supplemented with 100 µg ml^−1 DNaseI and 10.5 µM Y-27632 dihydrochloride (Invitrogen) at 37 °C. A total of 1,000–2,000 single cells were plated per well in white 96-well plates (Greiner) in culture medium containing 10% GFR Matrigel or Cultrex BME. The treatment with doxycycline (5 µg ml^−1), pharmacological inhibitors or corresponding volumes of DMSO was started 24 h after plating. Doxycycline was obtained from Sigma-Aldrich. […] Cell viability was measured by means of CellTiter-Glo 3D or CellTiter-Glo 2.0 reagent (Promega) according to the manufacturers’ instructions and the Infinite M Plex reader (Tecan, i-control version 3.9.1 software). Results were normalized to vehicle (DMSO) or to shNC. For cell-doubling assays, the cell number was quantified at the corresponding time points using Guava EasyCyte flow cytometer (Luminex, CytoSoft v5.2 software).
(In general: Cellular ATP, detected with luciferase, serves as a proxy for viable cell number.)

Another data set concerns the target p38α (Homo sapiens, UniProt Q16539). Description: p38α inhibition on isolated enzyme (ELISA, ATF2 substrate). The format is biochemical. To be noted: Fig. 2d; replicates. A general note: In an ELISA, binding on a coated surface is turned into a signal by an enzyme label.
A short description of data set [1]: cell viability after 2015, Navitoclax or 2015 + Navitoclax (Fig. 5f). The format is cell-based. The arrangement: concentration or dose not given beside the values. To be noted: replicates.
Another data set concerns subcutaneous KAP CRCs. Description: treatment of subcutaneous KAP tumors in wild-type mice. Type of data set: in vivo, mouse. To be noted: 6 d of treatment; single tumors; Fig. 5i.
[2] abbreviates: Mus musculus, 24 h, read-out: Cell viability (%), Fig. 1d, replicates.

Chain of p38α (Q16539 whole entry): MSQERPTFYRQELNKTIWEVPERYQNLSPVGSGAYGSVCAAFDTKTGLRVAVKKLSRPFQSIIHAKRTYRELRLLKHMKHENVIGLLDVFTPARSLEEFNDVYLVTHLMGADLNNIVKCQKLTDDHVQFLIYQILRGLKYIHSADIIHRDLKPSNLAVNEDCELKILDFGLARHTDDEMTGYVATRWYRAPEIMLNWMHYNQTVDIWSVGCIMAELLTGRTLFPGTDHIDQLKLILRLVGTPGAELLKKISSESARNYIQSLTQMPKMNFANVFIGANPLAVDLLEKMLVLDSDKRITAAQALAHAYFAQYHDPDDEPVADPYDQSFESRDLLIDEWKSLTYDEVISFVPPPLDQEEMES
Procedure for p38α: For evaluating p38α inhibition on isolated enzyme, an ELISA assay was performed[57]. […] Compounds were dissolved in DMSO (10 mM) and diluted (0.01–10 µM) in a kinase buffer containing 12 ng per 50 µl p38α protein (provided by J. Schultz, University of Tübingen), 50 mM Tris pH 7.5, 10 mM MgCl2, 10 mM β-glycerophosphate, 100 µg ml^−1 BSA, 1 mM dithiothreitol, 0.1 mM Na3VO4 and 100 µM ATP. Then, 50 µl of each sample was pipetted into the corresponding wells and incubated for 1 h at 37 °C. […] Finally, 50 µl of TMB substrate (BD Bioscience) was added to the wells. After 5 min, the reaction was stopped by adding 25 µl of 1 N HCl and the samples were measured photometrically at 450 nm with an ELISA reader (Molecular Devices, FilterMax F5) using SOFTmax PRO software (version 6.5.1).
Procedure for subcutaneous KAP CRCs: Subcutaneous injection, splenic seeding or cecum injection of organoids was performed in 8–10-week-old C57BL/6 N/Crl, Rag2^−/− (B6.Cg-Rag2^tm1.1Cgn/J), or CB17 Scid beige (CB17.Cg-Prkdc^scidLyst^bg-J/Crl) mice, obtained from Charles River. The organoids were dissociated into single cells, washed with PBS and injected in a 1:1 mixture of PBS and Matrigel. For murine organoids, 1 × 10^5 cells were injected into the left and right flanks or the spleen capsule and 2 × 10^6 cells were injected into the cecum wall. For human organoids, 4 × 10^5 cells were injected into the flanks of CB17 Scid beige mice. For splenic seeding and cecum injection, mice were anaesthetized using ketamine (100 mg kg^−1, intraperitoneally) and xylazin (10 mg/kg, intraperitoneally) in NaCl and a small laparotomy below the thorax was performed.
No mice were excluded during treatment studies.

For `CNC(=O)c1ccc(C)c(-n2c(C)cc(OCc3ccc(F)cc3F)c(Br)c2=O)c1` [PH-797804, reference compound], in the data set with KAP organoids, the “induction of cell death in KAP organoids (in words)” value (from here on “induction of cell death”) is recorded as “only a very weak induction of cell death”.
Turning to `Cc1ccc(-n2nc(C(C)(C)C)cc2NC(=O)Nc2ccc(OCCN3CCOCC3)c3ccccc23)cc1` [BIRB-796, reference compound], in the data set on KAP organoids, the “induction of cell death” value is “failed to inhibit p38α downstream signaling and induce cell death”.
For the compound `CC(C)(C)Cn1c(N)nc2ccc(-c3[nH]c(C(C)(C)C)nc3-c3ccc(F)cc3)nc21` [LY2228820, ralimetinib, reference compound], the viability at 5 µM with KAP organoids (Mus musculus, 24 h, read-out: Cell viability (%), Fig. 1d, 5 µM, replicates) stood at 93.3%. Besides, the viability at 10 µM in the data set on KAP organoids (setting [2]) amounted to 77.8%. In the data set with KAP organoids, the “induction of cell death” value is on record as “only a very weak induction of cell death”.
One may read the IC50 as the concentration that gives 50% inhibition. Regarding `CC(C)(C)Cn1c(N)nc2ccc(-c3[nH]c(C(C)(C)C)nc3-c3ccc(F)cc3)nc21` [LY222820], on p38α, the IC50 was 7.81 nM and 4.31 nM and 10.9 nM.
For `CNC(=O)c1ccc(C)c(-n2c(C)cc(OCc3ccc(F)cc3F)c(Br)c2=O)c1` [PH797804], the viability at 1 µM is 92.1% in the data set with KAP organoids (Mus musculus, 24 h, read-out: Cell viability (%), Fig. 1d, 1 µM, replicates) and 86.2% in the data set on KAP organoids (Mus musculus, read-out: Cell viability (% of DMSO), drug screen in KAP organoids, 1 µM concentration, n = 3, mean). Besides, the viability at 10 µM with KAP organoids (setting [2]) was determined as 84.1%.
For `CC1(C)CCC(c2ccc(Cl)cc2)=C(CN2CCN(c3ccc(C(=O)NS(=O)(=O)c4ccc(N[C@H](CCN5CCOCC5)CSc5ccccc5)c(S(=O)(=O)C(F)(F)F)c4)cc3)CC2)C1` [navitoclax, reference compound], in data set [1], the Cell viability was 100.49% and 78.37% and 85.69%. Moreover, the “induction of cell death” value in the data set with KAP organoids was “no therapeutic response”. Besides, the Tumor volume in the data set with subcutaneous KAP CRCs was 87.5 mm³ and 126.0 mm³ and 144.0 mm³ and 112.5 mm³ and 100.0 mm³.
